From ChEMBL document CHEMBL5674860, “Optimized Dual-Glo Assay to identify co-culture-induced drug vulnerabilities in 3D CRC models” (2024)

Columns and labels:
Format in all cases: functional, Homo sapiens
Set-up in all cases: dose or concentration left out as unconfirmed
[1] = test system: Colon cancer organoid; assay: Optimized Dual-Glo assay to identify co-culture induced drug vulnerabilities using donated chemical probes and chemogenomics kinase set in O20 CRC organoid and F20 CAF mono and co-culture. […] Cell viability is reported both mono and co-culture models.
[2] = test system: Colon cancer organoid; assay: Optimized Dual-Glo assay to identify co-culture induced drug vulnerabilities using donated chemical probes and chemogenomics kinase set in O14 CRC organoid and F14 CAF mono and co-culture. […] Cell viability is reported both mono and co-culture models.
[3] = test system: Colon cancer organoid; assay: Optimized Dual-Glo assay to identify co-culture induced drug vulnerabilities using donated chemical probes and chemogenomics kinase set in O06 CRC organoid and F06 CAF mono and co-culture. […] Cell viability is reported both mono and co-culture models.
[4] = Culture type Co-Culture, Transduced with Lucferase2-P2A-EGFP lentivirus
[5] = Culture type Co-Culture, Transduced with Renilla-dsRed lentivirus
[6] = Culture type Mono-Culture, Transduced with Lucferase2-P2A-EGFP lentivirus
[7] = Culture type Mono-Culture, Transduced with Renilla-dsRed lentivirus

For Cc1c(NC(=O)c2ccc(C(C)(C)C)cc2)cccc1-c1cn(C)c(=O)c(Nc2ccc(C(=O)N3CCOCC3)cc2)n1, the “Cell Viability” value [1, 4] was 109.579%, the “Cell Viability” value [1, 5] was 88.3582% and the “Cell Viability” value [1, 6] was 122.68%. For the same compound, the “Cell Viability” value [1, 7] was 92.088%, the “Cell Viability” value [2, 4] was 85.4676% and the “Cell Viability” value [2, 5] was 81.7664%. The “Cell Viability” value [2, 6] was 100.184%, the “Cell Viability” value [2, 7] was 91.8671% and the “Cell Viability” value [3, 4] was 105.279%. The “Cell Viability” value [3, 5] was 113.435%, the “Cell Viability” value [3, 6] was 83.7541% and the “Cell Viability” value [3, 7] was 97.4758%.

With CCCCNc1ncc(-c2ccc(CN3CCOCC3)cn2)c(N[C@H]2CC[C@H](O)CC2)n1 the “Cell Viability” value [1, 4] was 8.774%, the “Cell Viability” value [1, 5] was 223.767% and the “Cell Viability” value [1, 6] was 10.8517%. The “Cell Viability” value [1, 7] was 82.0591%, the “Cell Viability” value [2, 4] was 23.305% and the “Cell Viability” value [2, 5] was 148.151%. The “Cell Viability” value [2, 6] was 59.2421%, the “Cell Viability” value [2, 7] was 71.142% and the “Cell Viability” value [3, 4] was 22.8495%. For the same compound, the “Cell Viability” value [3, 5] was 123.664%, the “Cell Viability” value [3, 6] was 12.6023% and the “Cell Viability” value [3, 7] was 77.4775%.

In the case of CC(C)NC(=O)N1CC[C@H](NC2=Nc3cc(F)ccc3N(CC(F)F)c3ccc(Cl)cc32)C1, the “Cell Viability” value [1, 4] is reported as 55.1322%, the “Cell Viability” value [1, 5] is reported as 142.836% and the “Cell Viability” value [1, 6] is reported as 58.5304%. For the same compound, the “Cell Viability” value [1, 7] was 89.934%, the “Cell Viability” value [2, 4] was 105.089% and the “Cell Viability” value [2, 5] was 97.5374%. For the same compound, the “Cell Viability” value [2, 6] was 82.3325%, the “Cell Viability” value [2, 7] was 100.505% and the “Cell Viability” value [3, 4] was 86.0472%. The “Cell Viability” value [3, 5] was 89.4587%, the “Cell Viability” value [3, 6] was 81.5326% and the “Cell Viability” value [3, 7] was 94.1375%.

For Cn1c(=O)[nH]c2cc(N3C(=O)c4cccc5c(CCCO)ccc(c45)C3=O)ccc21, the “Cell Viability” value [1, 4] was 125.633%, the “Cell Viability” value [1, 5] was 89.8045% and the “Cell Viability” value [1, 6] was 109.771%. The “Cell Viability” value [1, 7] was 112.055%, the “Cell Viability” value [2, 4] was 89.1085% and the “Cell Viability” value [2, 5] was 114.749%. For the same compound, the “Cell Viability” value [2, 6] was 98.1543%, the “Cell Viability” value [2, 7] was 99.5703% and the “Cell Viability” value [3, 4] was 115.119%. For the same compound, the “Cell Viability” value [3, 5] was 110.623%, the “Cell Viability” value [3, 6] was 83.0583% and the “Cell Viability” value [3, 7] was 109.161%.

In the case of CN1CCN(Cc2cc(NC(=O)c3ccc4c(c3)CN(c3ccccc3)CC4)cc(C(F)(F)F)c2)CC1, the “Cell Viability” value [1, 4] is reported as 90.0307%, the “Cell Viability” value [1, 5] is reported as 84.0381% and the “Cell Viability” value [1, 6] is reported as 92.4079%. The “Cell Viability” value [1, 7] was 96.3902%, the “Cell Viability” value [2, 4] was 99.7753% and the “Cell Viability” value [2, 5] was 107.038%. For the same compound, the “Cell Viability” value [2, 6] was 129.235%, the “Cell Viability” value [2, 7] was 97.9505% and the “Cell Viability” value [3, 4] was 103.855%. For the same compound, the “Cell Viability” value [3, 5] was 89.7391%, the “Cell Viability” value [3, 6] was 108.49% and the “Cell Viability” value [3, 7] was 105.467%.

In the case of Cc1cn(-c2cc(NC(=O)c3ccc4c(c3)CN(c3cncnc3)C[C@@H]4C)cc(C(F)(F)F)c2)cn1, the “Cell Viability” value [1, 4] is reported as 88.3808%, the “Cell Viability” value [1, 5] is reported as 107.854% and the “Cell Viability” value [1, 6] is reported as 86.0975%. The “Cell Viability” value [1, 7] was 111.829%, the “Cell Viability” value [2, 4] was 105.46% and the “Cell Viability” value [2, 5] was 96.2213%. The “Cell Viability” value [2, 6] was 134.218%, the “Cell Viability” value [2, 7] was 97.9875% and the “Cell Viability” value [3, 4] was 85.5561%. The “Cell Viability” value [3, 5] was 98.7805%, the “Cell Viability” value [3, 6] was 59.4105% and the “Cell Viability” value [3, 7] was 105.628%.

With Cc1cccc(-c2cnc3occ(-c4ccc(C(=O)O)c(C5CCCC5)c4)c3c2)c1 the “Cell Viability” value [1, 4] was 88.6258%, the “Cell Viability” value [1, 5] was 133.429% and the “Cell Viability” value [1, 6] was 94.6873%. The “Cell Viability” value [1, 7] was 103.401%, the “Cell Viability” value [2, 4] was 114.736% and the “Cell Viability” value [2, 5] was 94.3308%. For the same compound, the “Cell Viability” value [2, 6] was 126.625%, the “Cell Viability” value [2, 7] was 90.9911% and the “Cell Viability” value [3, 4] was 95.2844%. The “Cell Viability” value [3, 5] was 61.5637%, the “Cell Viability” value [3, 6] was 124.633% and the “Cell Viability” value [3, 7] was 116.796%.

With O=C(NCCCN1CCOC1=O)c1cnc(NCc2cc(Br)ccc2Br)nc1NC1CCCC1 the “Cell Viability” value [1, 4] was 103.947%, the “Cell Viability” value [1, 5] was 94.0994% and the “Cell Viability” value [1, 6] was 97.7699%. The “Cell Viability” value [1, 7] was 110.221%, the “Cell Viability” value [2, 4] was 74.8932% and the “Cell Viability” value [2, 5] was 125.798%. The “Cell Viability” value [2, 6] was 157.235%, the “Cell Viability” value [2, 7] was 136.857% and the “Cell Viability” value [3, 4] was 110.394%. For the same compound, the “Cell Viability” value [3, 5] was 154.807%, the “Cell Viability” value [3, 6] was 109.931% and the “Cell Viability” value [3, 7] was 185.402%.

In the case of O=C(O)c1ccc(-c2coc3ncc(-c4ccccc4)cc23)cc1Cl, the “Cell Viability” value [1, 4] is reported as 189.357%, the “Cell Viability” value [1, 5] is reported as 126.188% and the “Cell Viability” value [1, 6] is reported as 202.493%. For the same compound, the “Cell Viability” value [1, 7] was 116.18%, the “Cell Viability” value [2, 4] was 199.753% and the “Cell Viability” value [2, 5] was 90.4064%. For the same compound, the “Cell Viability” value [2, 6] was 200.801%, the “Cell Viability” value [2, 7] was 87.3818% and the “Cell Viability” value [3, 4] was 226.279%. The “Cell Viability” value [3, 5] was 119.386%, the “Cell Viability” value [3, 6] was 202.946% and the “Cell Viability” value [3, 7] was 112.766%.

c1ccc(C2CCN(c3cnc4c(N5CCOCC5)nccn34)CC2)cc1 was tested, and the “Cell Viability” value [1, 4] was 90.2822%, the “Cell Viability” value [1, 5] was 108.246% and the “Cell Viability” value [1, 6] was 142.742%. For the same compound, the “Cell Viability” value [1, 7] was 115.191%, the “Cell Viability” value [2, 4] was 111.149% and the “Cell Viability” value [2, 5] was 110.22%. For the same compound, the “Cell Viability” value [2, 6] was 155.031%, the “Cell Viability” value [2, 7] was 89.751% and the “Cell Viability” value [3, 4] was 98.2025%. The “Cell Viability” value [3, 5] was 98.7191%, the “Cell Viability” value [3, 6] was 229.272% and the “Cell Viability” value [3, 7] was 111.241%.

In the case of CN(C)C(=O)N1CC[C@H](NC2=Nc3cc(F)ccc3N(CC(F)F)c3ccc(Cl)cc32)C1, the “Cell Viability” value [1, 4] is reported as 71.357%, the “Cell Viability” value [1, 5] is reported as 98.2431% and the “Cell Viability” value [1, 6] is reported as 112.934%. The “Cell Viability” value [1, 7] was 109.328%, the “Cell Viability” value [2, 4] was 130.518% and the “Cell Viability” value [2, 5] was 98.5664%. For the same compound, the “Cell Viability” value [2, 6] was 108.387%, the “Cell Viability” value [2, 7] was 90.4728% and the “Cell Viability” value [3, 4] was 158.864%. The “Cell Viability” value [3, 5] was 159.783%, the “Cell Viability” value [3, 6] was 102.875% and the “Cell Viability” value [3, 7] was 125.077%.

In the case of CC1=CC(C)=[N+]2C1=C(CCCCc1cn(CC(=O)N3CCc4nc(NC(=O)[C@H]5CCN(C#N)C5)sc4C3)nn1)c1c(C)cc(C)n1[B-]2(F)F, the “Cell Viability” value [1, 4] is reported as 77.2227%, the “Cell Viability” value [1, 5] is reported as 101.216% and the “Cell Viability” value [1, 6] is reported as 73.7517%. The “Cell Viability” value [1, 7] was 82.644%, the “Cell Viability” value [2, 4] was 88.5952% and the “Cell Viability” value [2, 5] was 139.238%. For the same compound, the “Cell Viability” value [2, 6] was 60.7776%, the “Cell Viability” value [2, 7] was 90.2828% and the “Cell Viability” value [3, 4] was 125.029%. The “Cell Viability” value [3, 5] was 111.523%, the “Cell Viability” value [3, 6] was 94.7301% and the “Cell Viability” value [3, 7] was 81.9832%.

COc1ccccc1C(=O)Nc1cc2c(cc1N1CCNCC1C)n(C)c(=O)n2C (stereo not drawn) was tested, and the “Cell Viability” value [1, 4] was 130.677%, the “Cell Viability” value [1, 5] was 107.173% and the “Cell Viability” value [1, 6] was 124.631%. For the same compound, the “Cell Viability” value [1, 7] was 104.05%, the “Cell Viability” value [2, 4] was 109.979% and the “Cell Viability” value [2, 5] was 135.305%. For the same compound, the “Cell Viability” value [2, 6] was 100.033%, the “Cell Viability” value [2, 7] was 95.8386% and the “Cell Viability” value [3, 4] was 112.155%. For the same compound, the “Cell Viability” value [3, 5] was 138.916%, the “Cell Viability” value [3, 6] was 92.5462% and the “Cell Viability” value [3, 7] was 113.336%.

With COc1cccc2c1C(=O)c1c(O)c3c(c(O)c1C2=O)CC(O)(C(=O)CO)CC3OC1CC(N)C(O)C(C)O1.Cl (stereo not drawn) the “Cell Viability” value [1, 4] was 5.379%, the “Cell Viability” value [1, 5] was 237.178% and the “Cell Viability” value [1, 6] was 7.074%. For the same compound, the “Cell Viability” value [1, 7] was 81.7547%, the “Cell Viability” value [2, 4] was 1.614% and the “Cell Viability” value [2, 5] was 163.438%. For the same compound, the “Cell Viability” value [2, 6] was 2.622%, the “Cell Viability” value [2, 7] was 97.5605% and the “Cell Viability” value [3, 4] was 14.9439%. The “Cell Viability” value [3, 5] was 235.56%, the “Cell Viability” value [3, 6] was 8.313% and the “Cell Viability” value [3, 7] was 104.821%.
